Results: US12187702B2, “Sulfonamideurea compounds” (Inflazome Limited, priority 2018, dated 2025)
Counter-ions that a name gives are not always drawn.

Columns and labels:
NLRP3 [1] = biological target: T1, NLRP3 (Homo sapiens, UniProt Q96P20); experiment: THP-1 cells pyroptosis assay (LPS + nigericin, resazurin read-out); assay type: cell-based; design: Seed THP-1 cells (25,000 cells/well) containing 1.0 μg/ml LPS; host or cells: THP-1 cells; details: THP-1 cells, 1 μg/ml LPS, 5 μM nigericin; NLRP3 inhibitory activity; read-out: THP IC50
T1 sequence (Q96P20 whole entry): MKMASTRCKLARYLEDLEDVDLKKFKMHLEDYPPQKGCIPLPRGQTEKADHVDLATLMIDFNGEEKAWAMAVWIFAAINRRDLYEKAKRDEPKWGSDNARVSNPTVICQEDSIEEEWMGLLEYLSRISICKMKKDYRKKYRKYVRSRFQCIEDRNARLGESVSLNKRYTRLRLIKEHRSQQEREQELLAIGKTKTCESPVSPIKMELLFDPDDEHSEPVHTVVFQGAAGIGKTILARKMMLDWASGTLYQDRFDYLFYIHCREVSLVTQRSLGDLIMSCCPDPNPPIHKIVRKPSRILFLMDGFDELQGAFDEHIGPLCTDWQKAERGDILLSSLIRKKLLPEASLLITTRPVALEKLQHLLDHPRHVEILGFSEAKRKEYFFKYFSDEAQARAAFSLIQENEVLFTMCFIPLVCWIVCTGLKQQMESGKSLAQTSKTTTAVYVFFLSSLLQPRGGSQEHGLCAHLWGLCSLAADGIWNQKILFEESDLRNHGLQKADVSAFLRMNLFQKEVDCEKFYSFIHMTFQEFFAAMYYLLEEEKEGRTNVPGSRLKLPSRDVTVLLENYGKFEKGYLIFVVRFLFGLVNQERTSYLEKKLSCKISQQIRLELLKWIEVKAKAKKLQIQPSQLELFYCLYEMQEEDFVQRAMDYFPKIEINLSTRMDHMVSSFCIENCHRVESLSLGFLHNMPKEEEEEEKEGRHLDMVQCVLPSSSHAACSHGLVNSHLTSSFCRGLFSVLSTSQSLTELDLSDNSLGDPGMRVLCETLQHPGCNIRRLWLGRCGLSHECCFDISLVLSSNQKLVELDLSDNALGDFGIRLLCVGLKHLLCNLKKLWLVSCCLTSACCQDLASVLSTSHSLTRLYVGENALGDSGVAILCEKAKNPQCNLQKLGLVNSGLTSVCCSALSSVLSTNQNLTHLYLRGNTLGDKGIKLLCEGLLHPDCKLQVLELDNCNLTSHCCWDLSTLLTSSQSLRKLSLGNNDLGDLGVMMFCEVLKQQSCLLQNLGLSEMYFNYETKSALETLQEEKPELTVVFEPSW
Protocol: THP-1 cells (ATCC #TIB-202) were grown in RPMI containing L-glutamine (Gibco #11835) supplemented with 1 mM sodium pyruvate (Sigma #S8636) and penicillin (100 units/ml)/streptomycin (0.1 mg/ml) (Sigma #P4333) in 10% Fetal Bovine Serum (FBS) (Sigma #F0804). The cells were routinely passaged and grown to confluency (˜10^6 cells/ml). On the day of the experiment, THP-1 cells were harvested and resuspended into RPMI medium (without FBS). The cells were then counted and viability (>90%) checked by Trypan blue (Sigma #T8154). Appropriate dilutions were made to give a concentration of 625,000 cells/ml. To this diluted cell solution was added LPS (Sigma #L4524) to give a 1 μg/ml Final Assay Concentration (FAC). 40 μl of the final preparation was aliquoted into each well of a 96-well plate. The plate thus prepared was used for compound screening.
The following method step-by-step assay was followed for compound screening. • 1. Seed THP-1 cells (25,000 cells/well) containing 1.0 μg/ml LPS in 40 μl of RPMI medium (without FBS) in 96-well, black walled, clear bottom cell culture plates coated with poly-D-lysine (VWR #734-0317) • 2. Add 5 μl compound (8 points half-log dilution, with 10 μM top dose) or vehicle (DMSO 0.1% FAC) to the appropriate wells • 3. Incubate for 3 hrs at 37° C., 5% CO2 • 4. Add 5 μl nigericin (Sigma #N7143) (FAC 5 μM) to all wells • 5. Incubate for 1 hr at 37° C., 5% CO2 • 6. At the end of the incubation period, spin plates at 300×g for 3 mins and remove supernatant • 7. Then add 50 μl of resazurin (Sigma #R7017) (FAC 100 μM resazurin in RPMI medium without FBS) and incubate plates for a further 1-2 hrs at 37° C. and 5% CO2 • 8. Plates were read in an Envision reader at Ex 560 nm and Em 590 nm • 9. IC50 data is fitted to a non-linear regression equation (log inhibitor vs response-variable slope 4-parameters)

NLRP3 [2] = biological target: T1, NLRP3; experiment: Human whole blood IL-1β release assay (LPS + nigericin, AlphaLisa); assay type: cell-based; design: Plate out 80 μl of whole blood containing 1 μg/ml of LPS; from tissue; host or cells: human whole blood from healthy donors; details: human whole blood, 1 μg/ml LPS, 10 μM nigericin; IL-1β release; read-out: HWB IC50
Protocol: For systemic delivery, the ability to inhibit NLRP3 when the compounds are present within the bloodstream is of great importance. For this reason, the NLRP3 inhibitory activity of a number of compounds in human whole blood was investigated in accordance with the following protocol.
Human whole blood in Li-heparin tubes was obtained from healthy donors from a volunteer donor panel. • 1. Plate out 80 μl of whole blood containing 1 μg/ml of LPS in 96-well, clear bottom cell culture plate (Corning #3585) • 2. Add 10 μl compound (8 points half-log dilution with 10 μM top dose) or vehicle (DMSO 0.1% FAC) to the appropriate wells • 3. Incubate for 3 hrs at 37° C., 5% CO2 • 4. Add 10 μl nigericin (Sigma #N7143) (10 μM FAC) to all wells • 5. Incubate for 1 hr at 37° C., 5% CO2 • 6. At the end of the incubation period, spin plates at 300×g for 5 mins to pellet cells and remove 20 μl of supernatant and add to 96-well v-bottom plates for IL-1β analysis (note: these plates containing the supernatants can be stored at −80° C. to be analysed at a later date) • 7. IL-1β was measured according to the manufacturer protocol (Perkin Elmer-AlphaLisa IL-1 Kit AL220F-5000) • 8. IC50 data is fitted to a non-linear regression equation (log inhibitor vs response-variable slope 4-parameters)

IC50 (NLRP3 [1]) [µM]	IC50 (NLRP3 [2]) [µM]	SMILES
< 0.5	< 0.5	CN(C)C1CCN(S(=O)(=O)NC(=O)Nc2c3c(cc4c2CCC4)CCC3)C1 (centres unmarked) [Example 9, 3-(Dimethylamino)-N-((1,2,3,5,6,7-hexahydro-s-indacen-4-yl)carbamoyl)pyrrolidine-1-sulfonamide, potassium salt]
< 5	< 5	CN(C)CCN(Cc1ccccc1)S(=O)(=O)NC(=O)Nc1c2c(cc3c1CCC3)CCC2 [Example 10, 3-(N-Benzyl-N-(2-(dimethylamino)ethyl)sulfamoyl)-1-(1,2,3,5,6,7-hexahydro-s-indacen-4-yl)urea, potassium salt]
< 0.5	< 0.5	CN1C2CCC1CN(S(=O)(=O)NC(=O)Nc1c3c(cc4c1CCC4)CCC3)C2 [Example 14, N-((1,2,3,5,6,7-Hexahydro-s-indacen-4-yl)carbamoyl)-8-methyl-3,8-diazabicyclo[3.2.1]octane-3-sulfonamide, potassium salt]
< 0.5	< 0.5	CN(C)C1CCCN(S(=O)(=O)NC(=O)Nc2c3c(cc4c2CCC4)CCC3)C1 (centres unmarked) [Example 15, potassium salt]
< 1	< 0.5	CN1CCCC1CNS(=O)(=O)NC(=O)Nc1c2c(cc3c1CCC3)CCC2 (centres unmarked) [Example 25, 3-(N-((1-Methylpyrrolidin-2-yl)methyl))sulfamoyl)-1-(1,2,3,5,6,7-hexahydro-s-indacen-4-yl)urea, potassium salt]
< 0.5	< 1	CC(C)NCCNS(=O)(=O)NC(=O)Nc1c2c(cc3c1CCC3)CCC2 [Example 26]
< 0.5	< 0.5	CC(C)NCCN(C(C)C)S(=O)(=O)NC(=O)Nc1c2c(cc3c1CCC3)CCC2 [Example 28, 3-(N-Isopropyl-N-(2-(isopropylamino)ethyl))sulfamoyl)-1-(1,2,3,5,6,7-hexahydro-s-indacen-4-yl)urea, potassium salt]
< 0.5	< 0.5	CC(C)N1C2CCC1CN(S(=O)(=O)NC(=O)Nc1c3c(cc4c1CCC4)CCC3)C2 [Example 29, N-((1,2,3,5,6,7-Hexahydro-s-indacen-4-yl)carbamoyl)-8-isopropyl-3,8-diazabicyclo[3.2.1]octane-3-sulfonamide, potassium salt]
< 1	< 0.5	CC(CNS(=O)(=O)NC(=O)Nc1c2c(cc3c1CCC3)CCC2)N(C)C (centres unmarked) [Example 30, 3-(N-(2-(Dimethylamino)propyl))sulfamoyl)-1-(1,2,3,5,6,7-hexahydro-s-indacen-4-yl)urea, potassium salt]
< 0.5	< 0.5	CN1CCC1CNS(=O)(=O)NC(=O)Nc1c2c(cc3c1CCC3)CCC2 (centres unmarked) [Example 31, 3-(N-((1-Methylazetidin-2-yl)methyl))sulfamoyl)-1-(1,2,3,5,6,7-hexahydro-s-indacen-4-yl)urea, potassium salt]
< 0.5	< 0.5	CN1CC(NS(=O)(=O)NC(=O)Nc2c3c(cc4c2CCC4)CCC3)C1 [Example 34, 3-(N-(1-Methylazetidin-3-yl))sulfamoyl)-1-(1,2,3,5,6,7-hexahydro-s-indacen-4-yl)urea, potassium salt]
< 5	< 1	O=C(Nc1c2c(cc3c1CCC3)CCC2)NS(=O)(=O)NCCN1CCC1 [Example 35, 3-(N-(2-(Azetidin-1-yl)ethyl)sulfamoyl)-1-(1,2,3,5,6,7-hexahydro-s-indacen-4-yl)urea, potassium salt]
< 0.5	< 1	CN1CC2CCC(C1)N2S(=O)(=O)NC(=O)Nc1c2c(cc3c1CCC3)CCC2 [Example 37, N-((1,2,3,5,6,7-Hexahydro-s-indacen-4-yl)carbamoyl)-3-methyl-3,8-diazabicyclo[3.2.1]octane-8-sulfonamide, potassium salt]
< 1	–	CN1CC(CNS(=O)(=O)NC(=O)Nc2c3c(cc4c2CCC4)CCC3)C1 [Example 69, 3-(N-((1-Methylazetidin-3-yl)methyl)sulfamoyl)-1-(1,2,3,5,6,7-hexahydro-s-indacen-4-yl)urea, potassium salt]
< 5	–	CN(C)CC1CCCN1S(=O)(=O)NC(=O)Nc1c2c(cc3c1CCC3)CCC2 (centres unmarked) [Example 82, 2-((Dimethylamino)methyl)-N-((1,2,3,5,6,7-hexahydro-s-indacen-4-yl)carbamoyl)pyrrolidine-1-sulfonamide, potassium salt]
< 5	–	CN1CC2CN(S(=O)(=O)NC(=O)Nc3c4c(cc5c3CCC5)CCC4)CC2C1 (centres unmarked) [Example 99, N-((1,2,3,5,6,7-Hexahydro-s-indacen-4-yl)carbamoyl)-5-methylhexahydropyrrolo[3,4-c]pyrrole-2(1H)-sulfonamide]
< 5	–	CC(C)c1cc(F)cc(-c2ccnc(C#N)c2)c1NC(=O)NS(=O)(=O)N(C)C1CCN(C)C1 (centres unmarked) [Example 101]
< 5	–	CC(C)c1cc(F)cc(-c2ccnc(C#N)c2)c1NC(=O)NS(=O)(=O)N(C)CC1CCCN1C (centres unmarked) [Example 102]
< 10	–	Cc1nc(C(C)C)c(NC(=O)NS(=O)(=O)N(C)C2CCN(C)C2)n1-c1ccncc1 (centres unmarked) [Example 109, 1-(5-Isopropyl-2-methyl-3-(4-pyridyl)imidazol-4-yl)-3-(methyl-(1-methylpyrrolidin-3-yl)sulfamoyl)urea]

SMILES	IC50 (NLRP3 [1]) [µM]	IC50 (NLRP3 [2]) [µM]
O=C(Nc1c2c(cc3c1CCC3)CCC2)NS(=O)(=O)N1[C@@H]2CC[C@H]1C[C@@H](N1CCCC1)C2 [Example 70, (1R,3r,5S)—N-((1,2,3,5,6,7-Hexahydro-s-indacen-4-yl)carbamoyl)-3-(pyrrolidin-1-yl)-8-azabicyclo[3.2.1]octane-8-sulfonamide]	< 1	–
CCN1[C@@H]2CC[C@H]1C[C@H](NS(=O)(=O)NC(=O)Nc1c3c(cc4c1CCC4)CCC3)C2 [Example 74, (1R,3s,5S)-8-Ethyl-8-azabicyclo[3.2.1]octan-3-(N-((1,2,3,5,6,7-hexahydro-s-indacen-4-yl)carbamoyl)-sulfonamide)]	< 5	–
CN(C)[C@@H]1C[C@H]2CC[C@@H](C1)N2S(=O)(=O)NC(=O)Nc1c2c(cc3c1CCC3)CCC2 [Example 77, (1R,3s,5S)-3-(Dimethylamino)-N-((1,2,3,5,6,7-hexahydro-s-indacen-4-yl)carbamoyl)-8-azabicyclo[3.2.1]octane-8-sulfonamide]	< 10	–
CCN(CC)[C@@H]1C[C@H]2CC[C@@H](C1)N2S(=O)(=O)NC(=O)Nc1c2c(cc3c1CCC3)CCC2 [Example 78, (1R,3s,5S)-3-(Diethylamino)-N-((1,2,3,5,6,7-hexahydro-s-indacen-4-yl)carbamoyl)-8-azabicyclo[3.2.1]octane-8-sulfonamide]	< 5	–
CN(C)[C@H]1C[C@H]2CC[C@@H](C1)N2S(=O)(=O)NC(=O)Nc1c2c(cc3c1CCC3)CCC2 [Example 79, (1R,3r,5S)-3-(Dimethylamino)-N-((1,2,3,5,6,7-hexahydro-s-indacen-4-yl)carbamoyl)-8-azabicyclo[3.2.1]octane-8-sulfonamide]	–	< 0.5
CN1C2CC1CN(S(=O)(=O)NC(=O)Nc1c3c(cc4c1CCC4)CCC3)C2 [Example 100, N-((1,2,3,5,6,7-Hexahydro-s-indacen-4-yl)carbamoyl)-6-methyl-3,6-diazabicyclo[3.1.1]heptane-3-sulfonamide]	< 0.5	–
